{"source": "ChEMBL document CHEMBL5465560", "about": "“Selectivity Literature for EUbOPEN Chemogenomic Library” (2024)", "key": {"[1]": {"target": "Cyclin-dependent kinase 9 (Homo sapiens, UniProt P50750)", "sequence (P50750 whole entry)": "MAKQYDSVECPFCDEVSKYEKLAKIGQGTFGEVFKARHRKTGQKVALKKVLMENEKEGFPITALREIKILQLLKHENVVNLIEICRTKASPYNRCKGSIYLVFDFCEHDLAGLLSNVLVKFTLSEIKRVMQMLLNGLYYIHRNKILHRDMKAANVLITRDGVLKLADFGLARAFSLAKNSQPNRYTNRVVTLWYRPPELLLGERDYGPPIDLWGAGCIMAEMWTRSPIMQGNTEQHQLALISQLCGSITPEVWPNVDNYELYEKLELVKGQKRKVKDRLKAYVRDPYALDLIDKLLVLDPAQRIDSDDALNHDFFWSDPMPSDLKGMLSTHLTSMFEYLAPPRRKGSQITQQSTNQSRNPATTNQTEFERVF", "test": "Selectivity interaction (SelectScreen Kinase Profiling (Thermo Fisher Scientific)) EUB0001558a CDK9", "settings": "at 1 µM"}, "[2]": {"target": "Protein kinase C beta type (Homo sapiens, UniProt P05771)", "sequence (P05771 2-671 limits assumed)": "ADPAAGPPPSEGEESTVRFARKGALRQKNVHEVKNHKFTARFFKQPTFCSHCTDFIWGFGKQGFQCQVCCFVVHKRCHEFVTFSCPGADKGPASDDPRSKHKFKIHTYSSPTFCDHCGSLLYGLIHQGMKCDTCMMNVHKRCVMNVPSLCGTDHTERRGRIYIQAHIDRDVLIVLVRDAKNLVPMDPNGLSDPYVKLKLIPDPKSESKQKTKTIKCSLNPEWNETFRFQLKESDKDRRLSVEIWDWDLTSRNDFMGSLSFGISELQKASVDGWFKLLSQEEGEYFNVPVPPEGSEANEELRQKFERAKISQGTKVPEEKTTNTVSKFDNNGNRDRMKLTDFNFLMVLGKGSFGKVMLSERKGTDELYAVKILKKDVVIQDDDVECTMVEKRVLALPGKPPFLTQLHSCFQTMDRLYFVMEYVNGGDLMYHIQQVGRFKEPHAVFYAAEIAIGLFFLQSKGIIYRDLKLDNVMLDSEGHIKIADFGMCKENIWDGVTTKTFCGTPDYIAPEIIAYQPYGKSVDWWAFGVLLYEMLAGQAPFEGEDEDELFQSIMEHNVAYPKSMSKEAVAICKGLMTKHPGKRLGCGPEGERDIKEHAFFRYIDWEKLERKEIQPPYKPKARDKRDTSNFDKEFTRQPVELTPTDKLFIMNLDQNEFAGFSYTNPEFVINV", "test": "Selectivity interaction (Upstate Kinase Profiler service (Millipore)) EUB0000056c PRKCB", "settings": "at 1 µM"}, "[3]": {"target": "T1, Casein kinase I isoform alpha-like (Homo sapiens) (UniProt Q8N752)", "T1 sequence (whole entry)": "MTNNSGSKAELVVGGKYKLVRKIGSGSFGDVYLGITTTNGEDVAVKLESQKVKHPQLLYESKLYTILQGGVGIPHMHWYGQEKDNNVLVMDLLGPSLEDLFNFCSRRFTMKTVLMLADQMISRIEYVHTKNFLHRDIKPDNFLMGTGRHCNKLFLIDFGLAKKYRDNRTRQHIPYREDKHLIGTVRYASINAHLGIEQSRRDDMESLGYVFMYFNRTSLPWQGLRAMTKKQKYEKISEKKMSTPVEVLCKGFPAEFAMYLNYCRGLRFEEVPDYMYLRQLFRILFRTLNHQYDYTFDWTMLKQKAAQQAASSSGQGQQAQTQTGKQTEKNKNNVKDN", "settings": "at 10 µM"}, "[4]": {"target": "Lethal(3)malignant brain tumor-like protein 1 (Homo sapiens) (UniProt Q9Y468)", "sequence (Q9Y468 whole entry, the tested form may be a part)": "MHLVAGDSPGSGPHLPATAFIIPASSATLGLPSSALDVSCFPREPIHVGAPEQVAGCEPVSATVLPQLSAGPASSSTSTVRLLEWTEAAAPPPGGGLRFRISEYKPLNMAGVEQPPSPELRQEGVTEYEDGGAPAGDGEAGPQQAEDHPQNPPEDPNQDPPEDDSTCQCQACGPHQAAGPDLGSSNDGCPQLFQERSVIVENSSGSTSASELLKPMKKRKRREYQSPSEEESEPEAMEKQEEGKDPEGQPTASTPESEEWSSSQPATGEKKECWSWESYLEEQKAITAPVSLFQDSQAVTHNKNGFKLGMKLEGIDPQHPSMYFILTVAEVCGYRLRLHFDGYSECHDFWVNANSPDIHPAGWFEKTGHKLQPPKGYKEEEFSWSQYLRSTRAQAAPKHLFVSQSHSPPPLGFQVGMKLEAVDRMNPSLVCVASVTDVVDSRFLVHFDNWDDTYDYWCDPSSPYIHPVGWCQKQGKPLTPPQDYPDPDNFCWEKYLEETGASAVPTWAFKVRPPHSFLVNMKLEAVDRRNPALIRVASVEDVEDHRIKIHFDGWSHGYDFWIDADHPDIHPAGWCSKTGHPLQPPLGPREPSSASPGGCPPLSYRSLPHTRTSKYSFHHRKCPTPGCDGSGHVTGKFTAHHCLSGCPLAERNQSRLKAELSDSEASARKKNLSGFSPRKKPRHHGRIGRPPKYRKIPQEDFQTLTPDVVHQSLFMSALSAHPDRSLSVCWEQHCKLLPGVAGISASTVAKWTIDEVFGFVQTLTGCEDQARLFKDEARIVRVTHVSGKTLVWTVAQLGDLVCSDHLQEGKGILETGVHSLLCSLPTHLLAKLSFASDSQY", "test": "Selectivity interaction (PWWP, WD40, and Tudor domain panel (DSLS measurements, literature)) EUB0000270b L3MBTL"}, "[5]": {"target": "Cyclin-dependent kinase 16 (Homo sapiens) (UniProt Q00536)", "sequence (Q00536 whole entry)": "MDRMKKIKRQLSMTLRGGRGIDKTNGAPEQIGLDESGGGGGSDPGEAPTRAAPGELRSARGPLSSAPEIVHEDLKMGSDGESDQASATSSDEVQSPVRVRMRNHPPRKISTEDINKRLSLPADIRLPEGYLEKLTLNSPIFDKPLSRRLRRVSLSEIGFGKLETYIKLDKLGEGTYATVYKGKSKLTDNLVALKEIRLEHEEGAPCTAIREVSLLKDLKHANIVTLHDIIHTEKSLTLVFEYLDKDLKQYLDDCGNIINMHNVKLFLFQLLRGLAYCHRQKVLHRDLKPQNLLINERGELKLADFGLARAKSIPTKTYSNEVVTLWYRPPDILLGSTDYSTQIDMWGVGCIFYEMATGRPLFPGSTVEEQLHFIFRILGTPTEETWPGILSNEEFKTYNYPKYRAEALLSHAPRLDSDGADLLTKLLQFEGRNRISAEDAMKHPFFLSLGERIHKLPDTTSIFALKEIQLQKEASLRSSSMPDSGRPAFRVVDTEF", "test": "Selectivity interaction (ActivX KiNativ screen (kinase selectivity in THP-1 cell lysates)) EUB0000639a CDK16", "assay_type": "subcellular", "settings": "lysate"}, "[6]": {"target": "Serine/threonine-protein kinase PRP4 homolog (Homo sapiens) (UniProt Q13523)", "sequence (Q13523 whole entry)": "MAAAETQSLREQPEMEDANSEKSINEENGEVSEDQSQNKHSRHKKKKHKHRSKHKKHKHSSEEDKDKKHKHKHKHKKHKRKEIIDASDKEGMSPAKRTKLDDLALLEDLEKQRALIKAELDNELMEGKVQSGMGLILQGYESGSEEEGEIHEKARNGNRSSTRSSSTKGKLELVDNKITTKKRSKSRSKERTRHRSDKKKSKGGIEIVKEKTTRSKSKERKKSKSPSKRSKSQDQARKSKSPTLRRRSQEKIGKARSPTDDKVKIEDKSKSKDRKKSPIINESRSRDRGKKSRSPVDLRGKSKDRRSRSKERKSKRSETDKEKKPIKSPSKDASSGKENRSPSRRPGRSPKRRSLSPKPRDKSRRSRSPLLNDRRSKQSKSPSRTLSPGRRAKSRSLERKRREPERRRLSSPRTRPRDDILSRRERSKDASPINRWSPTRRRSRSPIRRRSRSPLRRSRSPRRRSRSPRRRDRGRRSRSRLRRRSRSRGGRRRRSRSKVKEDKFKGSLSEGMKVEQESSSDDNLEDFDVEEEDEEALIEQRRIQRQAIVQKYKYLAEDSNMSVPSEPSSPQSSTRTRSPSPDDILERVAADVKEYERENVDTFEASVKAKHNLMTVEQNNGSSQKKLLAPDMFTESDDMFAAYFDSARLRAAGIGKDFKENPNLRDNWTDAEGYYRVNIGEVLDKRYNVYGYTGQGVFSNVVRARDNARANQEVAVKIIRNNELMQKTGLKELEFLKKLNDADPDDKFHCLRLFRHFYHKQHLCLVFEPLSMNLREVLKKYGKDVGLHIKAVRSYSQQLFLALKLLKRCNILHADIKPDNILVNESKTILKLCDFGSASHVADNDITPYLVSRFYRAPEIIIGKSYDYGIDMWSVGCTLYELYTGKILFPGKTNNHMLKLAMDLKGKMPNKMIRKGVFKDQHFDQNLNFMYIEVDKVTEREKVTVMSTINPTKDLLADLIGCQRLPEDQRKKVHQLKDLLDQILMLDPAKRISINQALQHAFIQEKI", "test": "Selectivity interaction (ActivX KiNativ screen (kinase selectivity in THP-1 cell lysates)) EUB0000639a PRPF4", "assay_type": "subcellular", "settings": "lysate, at 5 µM"}, "[7]": {"target": "Serine/threonine-protein kinase 25 (Homo sapiens) (UniProt O00506)", "sequence (O00506 whole entry, looked up)": "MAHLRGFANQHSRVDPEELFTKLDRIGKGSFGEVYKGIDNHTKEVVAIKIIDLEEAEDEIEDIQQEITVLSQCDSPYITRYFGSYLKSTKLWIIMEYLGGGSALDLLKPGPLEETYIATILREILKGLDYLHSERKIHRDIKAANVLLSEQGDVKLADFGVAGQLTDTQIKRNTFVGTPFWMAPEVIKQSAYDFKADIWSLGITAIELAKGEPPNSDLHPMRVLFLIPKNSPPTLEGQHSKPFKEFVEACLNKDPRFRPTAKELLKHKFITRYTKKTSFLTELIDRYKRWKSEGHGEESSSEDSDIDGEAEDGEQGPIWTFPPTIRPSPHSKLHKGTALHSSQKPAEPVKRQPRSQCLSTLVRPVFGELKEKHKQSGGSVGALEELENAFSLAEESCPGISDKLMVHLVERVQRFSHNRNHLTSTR", "test": "Selectivity interaction (KinomeScan (DiscoverX)) EUB0000695a STK25", "settings": "at 100 nM"}, "[8]": {"tested_on": "Tyrosine-protein kinase ABL1 (Homo sapiens), P00519 [T315I]", "test": "Selectivity interaction (KinomeScan (DiscoverX)) EUB0000045b ABL1", "settings": "at 10 µM"}, "[9]": {"target": "Maternal embryonic leucine zipper kinase (Homo sapiens) (UniProt Q14680)", "sequence (Q14680 whole entry, looked up)": "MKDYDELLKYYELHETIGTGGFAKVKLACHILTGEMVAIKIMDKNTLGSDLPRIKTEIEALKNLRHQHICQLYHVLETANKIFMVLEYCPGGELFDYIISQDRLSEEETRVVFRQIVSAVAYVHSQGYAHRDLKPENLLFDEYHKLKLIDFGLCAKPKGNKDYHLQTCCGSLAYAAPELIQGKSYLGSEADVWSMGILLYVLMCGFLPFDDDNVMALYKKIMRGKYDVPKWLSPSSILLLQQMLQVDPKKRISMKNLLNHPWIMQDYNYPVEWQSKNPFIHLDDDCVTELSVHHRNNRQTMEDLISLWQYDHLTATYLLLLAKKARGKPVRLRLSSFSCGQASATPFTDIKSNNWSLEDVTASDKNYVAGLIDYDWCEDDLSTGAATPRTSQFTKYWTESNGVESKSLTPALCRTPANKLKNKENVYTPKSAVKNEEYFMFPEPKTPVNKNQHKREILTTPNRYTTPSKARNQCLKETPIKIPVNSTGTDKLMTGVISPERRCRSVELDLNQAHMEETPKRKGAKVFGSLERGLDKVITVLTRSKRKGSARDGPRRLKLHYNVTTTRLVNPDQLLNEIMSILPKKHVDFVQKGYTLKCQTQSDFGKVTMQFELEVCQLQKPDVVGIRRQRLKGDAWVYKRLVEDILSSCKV", "test": "Selectivity interaction (KinomeScan (DiscoverX)) EUB0000618a MELK", "settings": "at 10 µM"}, "[10]": {"target": "T2, Tyrosine-protein kinase ITK/TSK (Homo sapiens) (UniProt Q08881)", "T2 sequence (whole entry)": "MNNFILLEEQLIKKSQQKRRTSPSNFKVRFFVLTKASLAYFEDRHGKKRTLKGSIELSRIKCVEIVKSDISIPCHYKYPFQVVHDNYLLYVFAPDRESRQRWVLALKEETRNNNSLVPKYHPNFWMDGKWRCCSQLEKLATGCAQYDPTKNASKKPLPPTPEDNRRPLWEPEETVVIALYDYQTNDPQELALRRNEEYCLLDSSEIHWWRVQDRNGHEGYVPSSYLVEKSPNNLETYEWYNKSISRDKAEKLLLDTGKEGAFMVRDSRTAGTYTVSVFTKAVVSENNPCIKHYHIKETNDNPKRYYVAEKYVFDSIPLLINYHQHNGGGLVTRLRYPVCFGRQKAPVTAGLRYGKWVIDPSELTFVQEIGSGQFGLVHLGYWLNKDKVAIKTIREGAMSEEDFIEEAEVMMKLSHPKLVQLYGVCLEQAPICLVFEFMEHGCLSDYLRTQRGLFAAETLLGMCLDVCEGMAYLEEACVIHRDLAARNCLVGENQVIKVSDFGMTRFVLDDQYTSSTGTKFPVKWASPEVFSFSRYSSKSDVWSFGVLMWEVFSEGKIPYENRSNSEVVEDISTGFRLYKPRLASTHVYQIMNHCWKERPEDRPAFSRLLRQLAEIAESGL", "test": "Selectivity interaction (KinomeScan (DiscoverX)) EUB0001619a ITK", "settings": "at 1 µM"}, "[11]": {"target": "T3, Membrane-associated tyrosine- and threonine-specific cdc2-inhibitory kinase (Homo sapiens) (UniProt Q99640)", "T3 sequence (whole entry)": "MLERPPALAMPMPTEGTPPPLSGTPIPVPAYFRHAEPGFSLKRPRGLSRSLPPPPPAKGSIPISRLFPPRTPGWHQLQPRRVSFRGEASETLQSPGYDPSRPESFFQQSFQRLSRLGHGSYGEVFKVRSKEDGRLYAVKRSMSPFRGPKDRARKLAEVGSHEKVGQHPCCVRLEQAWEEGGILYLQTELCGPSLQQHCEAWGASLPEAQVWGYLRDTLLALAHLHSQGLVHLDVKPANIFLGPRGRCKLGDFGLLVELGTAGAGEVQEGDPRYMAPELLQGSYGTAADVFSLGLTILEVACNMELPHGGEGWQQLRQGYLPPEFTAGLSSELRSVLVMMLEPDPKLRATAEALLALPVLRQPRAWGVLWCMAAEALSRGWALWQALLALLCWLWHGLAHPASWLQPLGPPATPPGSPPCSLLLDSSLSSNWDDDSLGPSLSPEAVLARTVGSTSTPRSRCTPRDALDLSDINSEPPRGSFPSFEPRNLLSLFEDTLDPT", "test": "Selectivity interaction (KinomeScan (DiscoverX)) EUB0001619a PKMYT1", "settings": "at 1 µM"}}}
{"compound": "CC(C)(O)[C@H](F)CN1Cc2cc(NC(=O)c3cnn4cccnc34)c(N3CCOCC3)cc2C1=O", "values": [{"measurement": "% of inhibition", "setting": "[1]", "value": 74.5, "unit": "%"}]}
{"compound": "Cc1ccc(-c2ccc3c(ccc4sc5c(c43)NC[C@@H](C)NC5=O)n2)cn1", "values": [{"measurement": "% of inhibition", "setting": "[2]", "value": 13, "unit": "%"}]}
{"compound": "Cc1cc([C@@H](C)Nc2ccccc2C(=O)O)c2nc(N3CCOCC3)cc(=O)n2c1", "note": "[AZD-6482]", "values": [{"measurement": "% of control", "setting": "[3]", "value": 100, "unit": "%"}]}
{"compound": "Cc1cc(CN)cc(C)c1-c1ncn(C)c1-c1cncn1C", "values": [{"measurement": "dTagg", "setting": "[4]", "value": 0.2, "unit": "K"}]}
{"compound": "CC[C@@H]1[C@H](F)C(=O)N[C@@H]1COc1nccc2cc(C(N)=O)c(OC)cc12", "note": "[ZIMLOVISERTIB]", "values": [{"measurement": "% of inhibition", "setting": "[5]; at 0.01 µM", "value": 16.3, "unit": "%"}, {"measurement": "% of inhibition", "setting": "[5]; at 0.04 µM", "value": 18.2, "unit": "%"}, {"measurement": "% of inhibition", "setting": "[5]; at 0.2 µM", "value": 8.4, "unit": "%"}, {"measurement": "% of inhibition", "setting": "[5]; at 1 µM", "value": 15.9, "unit": "%"}, {"measurement": "% of inhibition", "setting": "[5]; at 5 µM", "value": 47.1, "unit": "%"}, {"measurement": "% of inhibition", "setting": "[6]", "value": 88.3, "unit": "%"}]}
{"compound": "Cc1cc(F)c(C(=O)Nc2cccc(-c3nncn3C(C)C)n2)cc1-n1cnc(C2CC2)c1", "values": [{"measurement": "% of control", "setting": "[7]", "value": 100, "unit": "%"}]}
{"compound": "C=CC(=O)Nc1cc(-n2c(=O)ccc3cnc4ccc(-c5ccc(NS(C)(=O)=O)cc5)cc4c32)ccc1C", "values": [{"measurement": "% of control", "setting": "[8]", "value": 100, "unit": "%"}]}
{"compound": "O[C@H]1CC[C@H](Nc2ncc3nc(Nc4c(F)cc(F)cc4F)n([C@H]4CCOC4)c3n2)CC1", "values": [{"measurement": "% of control", "setting": "[9]", "value": 92, "unit": "%"}]}
{"compound": "N#Cc1cccc(-c2c[nH]c3ncnc(N4CCOCC4)c23)c1", "values": [{"measurement": "% of control", "setting": "[10]", "value": 100, "unit": "%"}, {"measurement": "% of control", "setting": "[11]", "value": 73, "unit": "%"}]}
